Data from publication PMC9572083, “Hybrids of 1,4-Quinone with Quinoline Derivatives: Synthesis, Biological Activity, and Molecular Docking with DT-Diaphorase (NQO1)” (Molecules, 2022).

Tests used:
[1] = tested on: MDA-MB-231 cells; experiment: Cytotoxic activity, WST-1 assay, breast cancer MDA-MB-231; assay type: cell-based, human; conditions: for SI (IC50 HFF-1/IC50 cancer line) MDA-MB-231: HFF-1 vs MDA-MB-231; for IC50: Homo sapiens, breast cancer MDA-MB-231, 72 h, WST-1
Excerpt: (§1) Anticancer activity of compounds 11–14 was designated against following human cancer cell lines: melanoma (Colo-829), ovarian cancer (SK-OV-3), breast cancer (MDA-MB-231, T47D and MCF-7), lung cancer (A549) and normal fibroblasts (HFF-1). As a reference substance, the doxorubicin was used. The results are presented in Table 1 as IC50, where IC50 means the concentration of tested compounds (µM) causing the growth inhibition of 50% for given tumor cells. The negative value (Neg.) means that the IC50 is higher than 30 µM. Selectivity index (SI) as the ratio of the IC50 for normal fibroblast (HFF-1) to IC50 of the corresponding cell line, is presented in Table S2.
(§2) Compounds 7–14 and doxorubicin were tested for cytotoxic activity in vitro against panel of human cancer cell lines: melanoma (Colo-829, ATCC, Rockville, MD, USA), ovarian cancer (SK-OV-3, ATCC, Rockville, MD, USA), breast cancer (T47D, MCF-7, and MDA-MB-231, ATCC, Rockville, MD, USA) and lung cancer (A549, ATCC, Rockville, MD, USA). The cultured cells were kept at 37 °C and 5% CO2. The cells were seeded (5 × 10^4 cells/well/[…] DMEM supplemented with 10% FCS and streptomycin/penicillin) using 96-well plates (Nunc Thermo Fisher Scientific, Waltham, MA, USA). The tested compounds 7–14 with the concentration of 1–100 µg/mL DMSO were inducted with the cancer cells for 72 h. The WST-1-formazan (proliferation reagent WST-1 assay, Roche Diagnostics, Mannheim, Germany) was detected using a microplate reader at 450 nm. Results were expressed as a mean value of at least three independent experiments performed in triplicate.

[2] = tested on: T47D cells; experiment: Cytotoxic activity, WST-1 assay, breast cancer T47D; assay type: cell-based, human; conditions: for SI (IC50 HFF-1/IC50 cancer line) T47D: HFF-1 vs T47D; for IC50: Homo sapiens, breast cancer T47D, 72 h, WST-1
Excerpt: as §1, §2

[3] = target: T1, NQO1 (DT-diaphorase, EC 1.6.5.5, human recombinant) (Homo sapiens, UniProt P15559); experiment: NQO1 substrate NADPH recycling enzymatic assay; assay type: biochemical; conditions: compound 10 µmol/L, pH 7.4, 25 °C, absorbance at 340 nm
T1 construct: purchased Sigma-Aldrich
T1 sequence (P15559 whole entry): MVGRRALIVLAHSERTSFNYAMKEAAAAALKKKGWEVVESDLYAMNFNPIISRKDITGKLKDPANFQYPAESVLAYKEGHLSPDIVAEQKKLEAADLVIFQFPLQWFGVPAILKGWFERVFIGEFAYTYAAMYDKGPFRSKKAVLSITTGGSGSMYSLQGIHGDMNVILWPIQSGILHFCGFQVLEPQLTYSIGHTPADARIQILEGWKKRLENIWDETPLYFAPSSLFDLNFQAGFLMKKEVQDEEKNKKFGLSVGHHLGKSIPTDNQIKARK
Description: The interaction between 1,4-quinone moiety of hybrid and NQO1 protein leads to reduction in quinone to hydroquinone and production of reactive oxide form (ROS). According to a literature method, the ability of hybrids 11–14 and streptonigrin (ST) to be a substrate for NQO1 was examined by measuring the oxidation of NADPH to NADP^+ [29, 32].
Compounds 11–14 (10 µmol/L) were tested as NQO1 substrates using the NADPH recycling assay according to the literature method. The recombinant NQO1 (DT-diaphorase, EC 1.6.5.5, human recombinant, Sigma-Aldrich) was used, and the oxidation of NADPH to NADP^+ was measured at the absorption wavelength of 340 nm on the BioTek 800TS microplate reader (BioKom, Janki, Poland). Compounds were dissolved in dimethyl sulfoxide (2 µL) and added to the 96-well plate. The NQO1 protein (1.4 µg/mL) in 50 mmol/L potassium phosphate buffer (pH = 7.4) was added to each well (198 µL) (Nunc Thermo Fisher Scientific, Waltham, MA, USA). Once the 96-well plate was filled with the assay solutions, except the NADPH solution, it was placed into the instrument and left to sit for 5 min before starting the measurements. The enzymatic reaction was initiated by automatically dispensing the NADPH solution into the wells, and data were recorded at 10 s intervals for 5 min at 25 °C. The linear part of the absorbance vs. time graphs (the first 20 s to 1 min) was fitted, and the slopes were calculated. NADPH oxidation rates were compared with reactions lacking the tested compound. Initial velocities were calculated, and data were expressed as µmol NADPH/µmol NQO1/min. All reactions were carried out at least in triplicate.

[4] = tested on: Colo-829 cells; experiment: Cytotoxic activity, WST-1 assay, melanoma Colo-829; assay type: cell-based, human; conditions: for SI (IC50 HFF-1/IC50 cancer line) Colo-829: HFF-1 vs Colo-829; for IC50: Homo sapiens, melanoma Colo-829, 72 h, WST-1
Excerpt: as §1, §2

[5] = tested on: MCF-7 cells; experiment: Cytotoxic activity, WST-1 assay, breast cancer MCF-7; assay type: cell-based, human; conditions: for SI (IC50 HFF-1/IC50 cancer line) MCF-7: HFF-1 vs MCF-7; for IC50: Homo sapiens, MCF7, breast cancer MCF-7, 72 h, WST-1
Excerpt: as §1, §2

[6] = tested on: HFF-1 cells; experiment: Cytotoxic activity, WST-1 assay, normal fibroblasts HFF-1; assay type: cell-based; conditions: Homo sapiens, normal fibroblasts HFF-1, 72 h
Excerpt: as §1, §2

[7] = tested on: SK-OV-3 cells; experiment: Cytotoxic activity, WST-1 assay, ovarian cancer SK-OV-3; assay type: cell-based, human; conditions: for SI (IC50 HFF-1/IC50 cancer line) SK-OV-3: HFF-1 vs SK-OV-3; for IC50: Homo sapiens, ovarian cancer SK-OV-3, 72 h, WST-1
Excerpt: as §1, §2

[8] = tested on: A549 cells; experiment: Cytotoxic activity, WST-1 assay, lung cancer A549; assay type: cell-based, human; conditions: for SI (IC50 HFF-1/IC50 cancer line) A549: HFF-1 vs A549; for IC50: Homo sapiens, lung cancer A549, 72 h, WST-1
Excerpt: as §1, §2

[9] = tested on: TP53; experiment: Transcriptional activity of TP53 gene in A549 cells (RT-QPCR); assay type: cell-based, human; conditions: 24 h, concentration equal to half of IC50
Description: (§3) The mechanism of anticancer activity was determined by detection of transcriptional activity of the genes encoding a proliferation marker (H3 histone), cell cycle regulators (p53 and p21), and the mitochondrial apoptosis pathway (BCL-2 and BAX) (Figure 3a–d). The derivatives 11b, 12b, 13b, and 14b were selected for this study.
(§4) Transcriptional activity of genes (TP53, CDKN1A, BAX, and BCL-2) was rated by real-time RT-QPCR using Opticon™ DNA Engine system (MJ Research, Watertown, NY, USA) and QuantTect® SYBR® Green RT-PCR Kit (Qiagen, Hilden, Germany). Cultured cells were incubated with tested compounds for 24 h. RNA was extracted using Quick-RNA™ MiniPrep kit columns (Zymo Research, Irvine, CA, USA). The extracted RNA was assessed qualitatively and quantitatively. The amount and purity of the total RNA in extracts were determined spectrophotometrically (HP8452A apparatus, Hewlett Packard, Waldbronn, Germany).

[10] = tested on: CDKN1A; experiment: Transcriptional activity of CDKN1A gene in A549 cells (RT-QPCR); assay type: cell-based, human; conditions: 24 h, concentration equal to half of IC50
Description: as §3, §4

[11] = tested on: H3 histone gene; experiment: Transcriptional activity of H3 histone gene in A549 cells (RT-QPCR); assay type: cell-based, human; conditions: 24 h, concentration equal to half of IC50
Description: as §3, §4

Structure (SMILES)	melting point [°C]	SI (IC50 HFF-1/IC50 cancer line) MDA-MB-231 [1]	IC50 [1] [µM]	SI (IC50 HFF-1/IC50 cancer line) T47D [2]	IC50 [2] [µM]	NQO1 activity (enzymatic conversion rate) [3] [µmol NADPH/µmol NQO1/min]	SI (IC50 HFF-1/IC50 cancer line) Colo-829 [4]	IC50 [4] [µM]	SI (IC50 HFF-1/IC50 cancer line) MCF-7 [5]	IC50 [5] [µM]	IC50 [6] [µM]	SI (IC50 HFF-1/IC50 cancer line) SK-OV-3 [7]	IC50 [7] [µM]	SI (IC50 HFF-1/IC50 cancer line) A549 [8]	IC50 [8] [µM]	TP53 gene expression [9]	CDKN1A expression (copies of mRNA) [10]	Number of mRNA copies of the histone H3 gene [11]
Cc1ccc2cccc(OC3=C(Cl)C(=O)c4cccnc4C3=O)c2n1 [Compound 11b, 6-chloro-7-[(2-methylquinolin-8-yl)oxy]quinoline-5,8-dione]	110 to 112	15.87	1.64 ± 0.15	10.76	2.42 ± 0.13	1294 ± 51	13.56	1.92 ± 0.11	12.34	2.11 ± 0.08	26.1 ± 1.02	15.40	1.69 ± 0.03	14.62	1.78 ± 0.21	significant increase		
Cc1ccc2c(n1)C(=O)C(Oc1cccc3ccc(C)nc13)=C(Cl)C2=O [Compound 12b, 6-chloro-2-methyl-7-[(2-methylquinolin-8-yl)oxy]quinoline-5,8-dione]	130 to 132	6.46	1.57 ± 0.19	5.34	1.9 ± 0.23	1437 ± 42	6.01	1.69 ± 0.08	5.70	1.78 ± 0.03	10.2 ± 1.33	6.81	1.49 ± 0.21	7.10	1.43 ± 0.06	significant increase		
Cc1ccc2cccc(OC3=C(Cl)C(=O)c4ccncc4C3=O)c2n1 [Compound 13b, 6-chloro-7-[(2-methylquinolin-8-yl)oxy]isoquinoline-5,8-dione]	110 to 112	236.73	0.11 ± 0.01	20.19	1.29 ± 0.03	1143 ± 36	66.77	0.39 ± 0.11	42.69	0.61 ± 0.09	26 ± 1.6	53.14	0.49 ± 0.05	45.68	0.57 ± 0.02	significant increase	highest increase	reduce the amount of mRNA copies by half
O=C1C(Cl)=C(Oc2cccc3cccnc23)C(=O)c2ccccc21 [Compound 14a, 2-chloro-3[(quinolin-8-yl)oxy]naphthalene-1,4-dione]	115 to 117	0.84	15.2 ± 0.85		> 30	1282 ± 29	0.84	15.3 ± 2.56	0.91	14.1 ± 0.98	12.8 ± 0.85	7.54	1.7 ± 0.29	19.71	0.65 ± 0.07			
Cc1ccc2cccc(OC3=C(Cl)C(=O)c4ccccc4C3=O)c2n1 [Compound 14b, 2-chloro-3-[(2-methylquinolin-8-yl)oxy]naphthalene-1,4-dione]	100 to 102	0.58	19.2 ± 0.62	0.50	22.2 ± 1.03	1260 ± 15	0.74	15 ± 1.03	0.68	16.3 ± 1.08	11.1 ± 1.62	0.66	16.8 ± 0.59	5.30	2.1 ± 0.29	slight increase	slight effect	reduce the amount of mRNA copies by half
O=Cc1ccc2cccc(OC3=C(Cl)C(=O)c4ccccc4C3=O)c2n1 [Compound 14c, 8-[(3-chloro-1,4-dioxo-1,4-dihydronaphthalen-2-yl)oxy]quinoline-2-carbaldehyde]	131 to 133	0.71	25.1 ± 0.97	11.09	1.62 ± 0.21	550 ± 62		> 30		> 30	18 ± 1.75	71.84	0.25 ± 0.06	43.80	0.41 ± 0.06			
O=C1C(Cl)=C(Oc2cccc3ccc(Cl)nc23)C(=O)c2ccccc21 [Compound 14d, 2-chloro-3-[(2-chloroquinolin-8-yl)oxy]naphthalene-1,4-dione]	101 to 103	6.99	2.05 ± 0.35		> 30	1001 ± 43	0.80	18 ± 2.01	1.23	11.7 ± 1.34	14.3 ± 1.23	1.01	14.1 ± 0.52	1.76	8.13 ± 1.02			
